28 compounds from ChEMBL document CHEMBL4483862, “Open-source discovery of chemical leads for next-generation chemoprotective antimalarials” (2018) can be followed below.

This test has as its system Plasmodium berghei. Briefly: Luciferase/luciferin-expressing antifolate-resistant parasites were used to infect a culture of HepG2 cells that were pre-incubated with compounds. Infected hepatocytes emit light due to the luciferase reaction. Assay results are presented as the percent inhibition of light emission compared to control. […]. It is filed as functional. The conditions noted are these: sporozoite; for IC90: read-out: LUCIFERASE INFECTION ASSAY - IC90.

SMILES strings stand for the structures. Where only a bound is given, the exact number is not on record here.

As a reminder, the IC50 is the point on the concentration scale where inhibition reaches its midpoint. The IC90 is the point of the concentration-response curve where the effect stands at 90%. On to `Clc1nc(-c2ccccn2)nc2scc(-c3ccccc3)c12`, for which the IC90 stood at 1.68 µM. In addition, the IC50 (HEPG2TOX_HILL_SLOPE 0.933, HEPG2TOX_R_SQUARED 0.89, PBLUC_HILL_SLOPE 8.14, PBLUC_R_SQUARED 0.197, read-out: LUCIFERASE INFECTION ASSAY - IC50) is 1.28 µM.
Regarding `CN(C)c1ccc(-c2cnc3cnc(-c4ccc(O)cc4)cn23)cc1`, the IC90 turned out to be 1.76 µM. Also, the IC50 (HEPG2TOX_HILL_SLOPE 0.921, HEPG2TOX_R_SQUARED 0.948, PBLUC_HILL_SLOPE 0.805, PBLUC_R_SQUARED 0.912, read-out: LUCIFERASE INFECTION ASSAY - IC50) is 0.115 µM.
Turning to `Cn1ccc2cc(-c3cn4c(-c5cccc(CO)c5)cnc4cn3)ccc21`, the IC90 stood at 1.22 µM. Moreover, under “HEPG2TOX_HILL_SLOPE 0.928, HEPG2TOX_R_SQUARED 0.91, PBLUC_HILL_SLOPE 2.22, PBLUC_R_SQUARED 0.697, read-out: LUCIFERASE INFECTION ASSAY - IC50”, the IC50 was 0.452 µM.
In the case of `OCCCNc1ccc2ncc(-c3cccc(C(F)(F)F)c3)n2n1`, the IC90 was found to be 1.21 µM. Besides, the IC50 (HEPG2TOX_HILL_SLOPE 0.946, HEPG2TOX_R_SQUARED 0.925, PBLUC_HILL_SLOPE 15.6, PBLUC_R_SQUARED 0.717, read-out: LUCIFERASE INFECTION ASSAY - IC50) is 1.05 µM.
For `O=C(NNC(=O)c1ccccc1OCC1CCCO1)c1cc2ccccc2cc1O` (stereo unspecified), the IC90 worked out at 4.01 µM. For the setting “HEPG2TOX_HILL_SLOPE 0.895, HEPG2TOX_R_SQUARED 0.962, PBLUC_HILL_SLOPE 14.5, PBLUC_R_SQUARED 0.545, read-out: LUCIFERASE INFECTION ASSAY - IC50”, the half-inhibitory concentration (IC50) was 3.45 µM.
On to `CC(C)n1ncc2cc(C(=O)Nc3ccc4oc5ccccc5c4c3)cnc21`, for which the IC90 is 6.74 µM. Besides, the IC50 (HEPG2TOX_HILL_SLOPE 0.893, HEPG2TOX_R_SQUARED 0.928, PBLUC_HILL_SLOPE 1.69, PBLUC_R_SQUARED 0.728, read-out: LUCIFERASE INFECTION ASSAY - IC50) is 1.84 µM.
Turning to `O=C(c1cnn(C(=O)c2nn(-c3ccc(Cl)cc3)cc2O)c1)c1ccccc1O`, the IC90 amounted to 3.83 µM. Under “HEPG2TOX_HILL_SLOPE 0.890, 1.11, HEPG2TOX_R_SQUARED 0.813, 0.357, PBLUC_HILL_SLOPE 9.04, 15.6, PBLUC_R_SQUARED 0.0255, 0.659, read-out: LUCIFERASE INFECTION ASSAY - IC50”, the IC50 is 3.15 µM.
For the compound `CCc1ccc(-n2nnnc2-c2cnc(N)nc2-c2ccccc2)cc1`, the IC90 was 1.61 µM. Besides, the half-maximal inhibitory concentration (IC50) (HEPG2TOX_HILL_SLOPE 0.931, HEPG2TOX_R_SQUARED 0.943, PBLUC_HILL_SLOPE 1.76, PBLUC_R_SQUARED 0.648, read-out: LUCIFERASE INFECTION ASSAY - IC50) was found to be 0.463 µM.
As for `CCOc1cccc(-c2cn3c(-c4ccc(CO)cc4)cnc3cn2)c1`, the IC90 was found to be 0.828 µM. The IC50 (HEPG2TOX_HILL_SLOPE 0.91, HEPG2TOX_R_SQUARED 0.879, PBLUC_HILL_SLOPE 2.96, PBLUC_R_SQUARED 0.698, read-out: LUCIFERASE INFECTION ASSAY - IC50) was found to be 0.395 µM.
On to `CC(C)Cn1c(N)c(C(=O)CSc2nc(=O)c3c4c(sc3[nH]2)CCCC4)c(=O)n(C)c1=O`, for which the IC90 is greater than 10 µM. For the same compound, the IC50 (HEPG2TOX_HILL_SLOPE 0.911, HEPG2TOX_R_SQUARED 0.885, PBLUC_HILL_SLOPE 2, PBLUC_R_SQUARED 0.249, read-out: LUCIFERASE INFECTION ASSAY - IC50) came to 5.58 µM.
`CC(C)NC(=O)c1c(NC(=O)c2cc(F)c(Cl)cc2F)nc2ccccn12`: the 90% effect concentration (IC90) was found to be 1.42 µM. Also, under “HEPG2TOX_HILL_SLOPE 0.89, HEPG2TOX_R_SQUARED 0.947, PBLUC_HILL_SLOPE 3.47, PBLUC_R_SQUARED 0.71, read-out: LUCIFERASE INFECTION ASSAY - IC50”, the IC50 was found to be 0.755 µM.
For `CC1CCC2(CC1)NC(=O)N(Cc1ccc(C(=O)Nc3ccccc3)cc1)C2=O` (stereo unspecified), the IC90 is greater than 10 µM. Also, where the note is “HEPG2TOX_HILL_SLOPE 0.925, HEPG2TOX_R_SQUARED 0.33, PBLUC_HILL_SLOPE 1.44, PBLUC_R_SQUARED 0.482, read-out: LUCIFERASE INFECTION ASSAY - IC50”, the IC50 came out at 2.56 µM.
In the case of `CC(C)CN1CCC1(C(=O)Nc1ccncc1)c1ccccc1` (stereo unspecified), the concentration for an effect of 90% (IC90) was found to be 6.57 µM. In addition, the IC50 (HEPG2TOX_HILL_SLOPE 0.888, HEPG2TOX_R_SQUARED 0.951, PBLUC_HILL_SLOPE 1.36, PBLUC_R_SQUARED 0.753, read-out: LUCIFERASE INFECTION ASSAY - IC50) is 1.31 µM.
For the compound `CC(Sc1nc(-c2ccccc2)c(-c2ccccc2)o1)C(=O)NCc1ccco1` (stereo unspecified), the concentration for an effect of 90% (IC90) stood at 8.62 µM. Moreover, the IC50 (HEPG2TOX_HILL_SLOPE 0.891, HEPG2TOX_R_SQUARED 0.604, PBLUC_HILL_SLOPE 2.26, 2.77, PBLUC_R_SQUARED 0.745, 0.857, read-out: LUCIFERASE INFECTION ASSAY - IC50) is 5.29 µM.
As to `COc1ccc2[nH]c(C(=O)Nc3ccc(F)cc3)c(C)c2c1`, the IC90 was found to be 4.28 µM. In addition, the IC50 (HEPG2TOX_HILL_SLOPE 0.946, HEPG2TOX_R_SQUARED 0.313, PBLUC_HILL_SLOPE 15.5, PBLUC_R_SQUARED 0.583, read-out: LUCIFERASE INFECTION ASSAY - IC50) amounted to 3.72 µM.
`Cc1ccc(O)c(C(=O)c2cnc3cc4c(cc3c2)OCCO4)c1`: the IC90 is 0.81 µM. In addition, where the note is “HEPG2TOX_HILL_SLOPE 0.914, HEPG2TOX_R_SQUARED 0.945, PBLUC_HILL_SLOPE 1.42, PBLUC_R_SQUARED 0.804, read-out: LUCIFERASE INFECTION ASSAY - IC50”, the IC50 came out at 0.172 µM.
`Cc1cc(C(=O)C(C)OC(=O)c2ccc(S(=O)(=O)NCc3ccco3)cc2)c(C)n1-c1ccc(Cl)cc1` (stereo unspecified): the concentration for an effect of 90% (IC90) was greater than 10 µM. The IC50 (HEPG2TOX_HILL_SLOPE 0.938, HEPG2TOX_R_SQUARED 0.54, PBLUC_HILL_SLOPE 4.63, PBLUC_R_SQUARED 0.33, read-out: LUCIFERASE INFECTION ASSAY - IC50) was found to be 7.49 µM.
On to `O=S(=O)(NCCNc1ncnc2ccccc12)c1cccc(Cl)c1`, for which the concentration for an effect of 90% (IC90) was greater than 10 µM. In addition, the IC50 (HEPG2TOX_HILL_SLOPE 0.939, HEPG2TOX_R_SQUARED 0.791, read-out: LUCIFERASE INFECTION ASSAY - IC50) is greater than 10 µM.
For the compound `CCN(CC)S(=O)(=O)c1cccc(-c2nnc(SCc3nc(=O)c4cccc(C)c4[nH]3)n2CC(C)C)c1`, the IC90 is greater than 10 µM. In addition, the concentration for half-maximal inhibition (IC50) (HEPG2TOX_HILL_SLOPE 0.901, HEPG2TOX_R_SQUARED 0.0979, read-out: LUCIFERASE INFECTION ASSAY - IC50) was greater than 10 µM.
Turning to `C=CCN(c1ccccc1)S(=O)(=O)c1cc(C(=O)NCC2(N3CCCCC3)CCCCC2)ccc1Cl`, the IC90 is greater than 10 µM. Moreover, for the setting “HEPG2TOX_HILL_SLOPE 0.94, HEPG2TOX_R_SQUARED 0.4, PBLUC_HILL_SLOPE 1.67, PBLUC_R_SQUARED 0.0797, read-out: LUCIFERASE INFECTION ASSAY - IC50”, the IC50 was found to be 5.22 µM.
As for `CN(C)c1ccccc1-c1cnc2sc(NCCc3ccncc3)nn12`, the IC90 was greater than 9.05 µM. The IC50 (HEPG2TOX_HILL_SLOPE 0.921, HEPG2TOX_R_SQUARED 0.497, read-out: LUCIFERASE INFECTION ASSAY - IC50) was greater than 9.05 µM.
Regarding `Cc1cc(C=C2Sc3ccccc3N2C)cc(C)[n+]1C(C)C1CC2CCC1C2` (stereo unspecified), the IC90 amounted to 0.589 µM. Where the note is “HEPG2TOX_HILL_SLOPE 0.905, HEPG2TOX_R_SQUARED 0.888, PBLUC_HILL_SLOPE 1.95, PBLUC_R_SQUARED 0.822, read-out: LUCIFERASE INFECTION ASSAY - IC50”, the IC50 stood at 0.19 µM.
As to `FC(F)(F)c1cccc(CNc2ncnc3sccc23)c1`, the IC90 was 6.39 µM. Further, the IC50 (HEPG2TOX_HILL_SLOPE 0.888, 1.51, HEPG2TOX_R_SQUARED 0.921, 0.862, PBLUC_HILL_SLOPE 1.26, 1.66, PBLUC_R_SQUARED 0.564, 0.617, read-out: LUCIFERASE INFECTION ASSAY - IC50) came out at 1.42 µM.
Consider `O=C(c1ccc(-n2cccn2)cc1)N1CCC(n2c(=O)[nH]c3ccccc32)CC1`, for which the IC90 was greater than 10 µM. Further, the IC50 (HEPG2TOX_HILL_SLOPE 0.884, HEPG2TOX_R_SQUARED 0.19, PBLUC_HILL_SLOPE 11.8, PBLUC_R_SQUARED 0.218, read-out: LUCIFERASE INFECTION ASSAY - IC50) turned out to be 9.85 µM.
On to `COc1ccc(CNC(=O)CCOc2ccc(C(C)(C)C)cc2)cc1OC`, for which the IC90 is greater than 10 µM. Besides, the IC50 (HEPG2TOX_HILL_SLOPE 0.891, HEPG2TOX_R_SQUARED 0.4, PBLUC_HILL_SLOPE 0.658, PBLUC_R_SQUARED 0.48, read-out: LUCIFERASE INFECTION ASSAY - IC50) stood at 4.6 µM.
Turning to `C1=C(c2c[nH]c3ncccc23)CCN(c2ncnc3n[nH]cc23)C1`, the IC90 is greater than 10 µM. Besides, the IC50 (HEPG2TOX_HILL_SLOPE 0.924, HEPG2TOX_R_SQUARED 0.995, PBLUC_HILL_SLOPE 2.5, PBLUC_R_SQUARED 0.123, read-out: LUCIFERASE INFECTION ASSAY - IC50) was 7.5 µM.
For `O=C(Nc1nc2ccccn2c1C(=O)NC1CCCC1)c1ccc(Cl)cc1`, the IC90 came to 1.21 µM. Besides, the IC50 (HEPG2TOX_HILL_SLOPE 0.927, HEPG2TOX_R_SQUARED 0.795, PBLUC_HILL_SLOPE 2.2, PBLUC_R_SQUARED 0.668, read-out: LUCIFERASE INFECTION ASSAY - IC50) was determined as 0.447 µM.
As for `CCOC(=O)Nc1nc2ccc(C(F)(F)F)cc2[nH]1`, the 90% effect concentration (IC90) stood at 1.1 µM. In addition, for the setting “HEPG2TOX_HILL_SLOPE 0.892, HEPG2TOX_R_SQUARED 0.914, PBLUC_HILL_SLOPE 2.52, PBLUC_R_SQUARED 0.681, read-out: LUCIFERASE INFECTION ASSAY - IC50”, the IC50 was 0.459 µM.
